Assay type in all cases: functional
Test [1] concerns Teladorsagia circumcincta. As to the kind of experiment: Antiparasitic activity against Ostertagia circumcincta at dose of 0.05 mg/kg in sheep anthelmintic test.
For test [2], the system named is Oesophagostomum columbianum. The experiment in a line: Antiparasitic activity against Oesophagostomum columbianum at dose of 0.05 mg/kg in sheep anthelmintic test.
Test [3] relates to Cooperia. As to the kind of experiment: Antiparasitic activity against Cooperia […] at dose of 0.05 mg/kg in sheep anthelmintic test.
In test [4] the test system is Haemonchus contortus. As to the kind of experiment: Antiparasitic activity against Haemonchus contortus at dose of 0.05 mg/kg in sheep anthelmintic test.
Test [5] has as its system Trichostrongylus axei. The experiment in a line: Antiparasitic activity against Trichostrongylus axei at dose of 0.05 mg/kg in sheep anthelmintic test.
For test [6], the system named is Trichostrongylus colubriformis. As to the kind of experiment: Antiparasitic activity against Trichostrongylus colubriformis at dose of 0.05 mg/kg in sheep anthelmintic test.
The next test concerns Artemia. The experiment in a line: In vitro antiparasitic activity in brine shrimp assay.
A further test has as its system Cooperia oncophora. The experiment in a line: Antiparasitic activity against Cooperia oncophora at dose of 0.05 mg/kg in sheep anthelmintic test.
Test [7] concerns Oesophagostomum columbianum. The experiment in a line: Antiparasitic activity against Oesophagostomum columbianum at dose of 0.10 mg/kg in sheep anthelmintic test. The conditions noted are these: dose 0.1 mg/kg.
The test system of test [8] is Trichostrongylus axei. The experiment in a line: Antiparasitic activity against Trichostrongylus axei at dose of 0.10 mg/kg in sheep anthelmintic test. The settings on record: dose 0.1 mg/kg.
In test [9] the test system is Teladorsagia circumcincta. The experiment in a line: Antiparasitic activity against Ostertagia circumcincta at dose of 0.10 mg/kg in sheep anthelmintic test. The conditions noted are these: dose 0.1 mg/kg.
The test system of test [10] is Haemonchus contortus. As to the kind of experiment: Antiparasitic activity against Haemonchus contortus at dose of 0.10 mg/kg in sheep anthelmintic test. The conditions noted are these: dose 0.1 mg/kg.
The test system of test [11] is Cooperia. The experiment in a line: Antiparasitic activity against Cooperia […] at dose of 0.10 mg/kg in sheep anthelmintic test. The conditions noted are these: dose 0.1 mg/kg.
The test system of test [12] is Trichostrongylus colubriformis. As to the kind of experiment: Antiparasitic activity against Trichostrongylus colubriformis at dose of 0.10 mg/kg in sheep anthelmintic test. The conditions noted are these: dose 0.1 mg/kg.

Where only a bound is given, the exact number is not on record here.

For the compound `CCC(C)[C@H]1O[C@]2(C=C[C@@H]1C)C[C@@H]1C[C@@H](C/C=C(\C)[C@@H](O[C@H]3C[C@H](OC)[C@@H](O[C@H]4C[C@H](OC)[C@H](NS(C)(=O)=O)[C@H](C)O4)[C@H](C)O3)[C@@H](C)/C=C/C=C3\CO[C@@H]4[C@H](O)C(C)=C[C@@H](C(=O)O1)[C@]34O)O2` (some centres undefined), the Reduction (in [1]; in test [2]; in the test with Cooperia [3]; in the test with Haemonchus contortus [4]; in the test with Trichostrongylus axei [5]; in test [6]) was above 95% in each case. The same compound registered a Reduction with Cooperia oncophora above 95%. In the test with Artemia, the IC100 is 430 ng/mL.
In the case of `CCC(C)[C@H]1O[C@]2(C=C[C@@H]1C)C[C@@H]1C[C@@H](C/C=C(\C)[C@@H](O[C@H]3C[C@H](OC)[C@@H](O[C@H]4C[C@H](OC)[C@H](NC(=O)C(C)(C)C)[C@H](C)O4)[C@H](C)O3)[C@@H](C)/C=C/C=C3\CO[C@@H]4[C@H](O)C(C)=C[C@@H](C(=O)O1)[C@]34O)O2` (some centres undefined), the Reduction in [7] is reported as above 95%; with Trichostrongylus axei [8] it was 76%; in test [9], 76%; with Haemonchus contortus [10] it was above 95%; in the test on Cooperia [11], above 95%; in test [12] it was 76%. In the test on Artemia, this compound returned an IC100 of 1730 ng/mL.
Take `CCC(C)[C@H]1O[C@]2(C=C[C@@H]1C)C[C@@H]1C[C@@H](C/C=C(\C)[C@@H](O[C@H]3C[C@H](OC)[C@@H](O[C@H]4C[C@H](OC)[C@@H](N)[C@H](C)O4)[C@H](C)O3)[C@@H](C)/C=C/C=C3\CO[C@@H]4[C@H](O)C(C)=C[C@@H](C(=O)O1)[C@]34O)O2` (some centres undefined): the Reduction was above 95% in test [7]; below 50% in the test on Trichostrongylus axei [8]; above 95% in test [9]; above 95% in the test with Haemonchus contortus [10]; above 95% in the test on Cooperia [11]; below 50% in test [12]. The compound further gave an IC100 in the test with Artemia of 2600 ng/mL.
`CCC(C)[C@H]1O[C@]2(C=C[C@@H]1C)C[C@@H]1C[C@@H](C/C=C(\C)[C@@H](O[C@H]3C[C@H](OC)[C@@H](O[C@H]4C[C@H](OC)[C@H](NC)[C@H](C)O4)[C@H](C)O3)[C@@H](C)/C=C/C=C3\CO[C@@H]4[C@H](O)C(C)=C[C@@H](C(=O)O1)[C@]34O)O2` (some centres undefined): the Reduction was above 95% in [7]; above 95% in the test on Trichostrongylus axei [8]; above 95% in test [9]; above 95% in the test with Haemonchus contortus [10]; above 95% with Cooperia [11]; 76% in test [12]. In the test with Artemia, this compound showed an IC100 of 1730 ng/mL.
Consider `CCC(C)[C@H]1O[C@]2(C=C[C@@H]1C)C[C@@H]1C[C@@H](C/C=C(\C)[C@@H](O[C@H]3C[C@H](OC)[C@@H](O[C@H]4C[C@H](OC)[C@H](NC(=O)C(F)(F)F)[C@H](C)O4)[C@H](C)O3)[C@@H](C)/C=C/C=C3\CO[C@@H]4[C@H](O)C(C)=C[C@@H](C(=O)O1)[C@]34O)O2` (some centres undefined), for which the Reduction is on record as above 95% in [7]; above 95% in the test on Trichostrongylus axei [8]; below 50% in test [9]; above 95% in the test on Haemonchus contortus [10]; above 95% in the test on Cooperia [11]; above 95% in [12]. In the test with Artemia, this compound yielded an IC100 of 27800 ng/mL.
Regarding `CCC(C)[C@H]1O[C@]2(C=C[C@@H]1C)C[C@@H]1C[C@@H](C/C=C(\C)[C@@H](O[C@H]3C[C@H](OC)[C@@H](O[C@H]4C[C@H](OC)[C@H](NCCO)[C@H](C)O4)[C@H](C)O3)[C@@H](C)/C=C/C=C3\CO[C@@H]4[C@H](O)C(C)=C[C@@H](C(=O)O1)[C@]34O)O2` (some centres undefined), the Reduction is listed as above 95% in test [7]; below 50% in the test on Trichostrongylus axei [8]; above 95% in [9]; above 95% in the test with Haemonchus contortus [10]; above 95% with Cooperia [11]; 76% in test [12]. In the test on Artemia, this compound came in with an IC100 of 3470 ng/mL.
Consider `CCC(C)[C@H]1O[C@]2(C=C[C@@H]1C)C[C@@H]1C[C@@H](C/C=C(\C)[C@@H](O[C@H]3C[C@H](OC)[C@@H](O[C@H]4C[C@H](OC)[C@H](N)[C@H](C)O4)[C@H](C)O3)[C@@H](C)/C=C/C=C3\CO[C@@H]4[C@H](O)C(C)=C[C@@H](C(=O)O1)[C@]34O)O2` (some centres undefined), for which the Reduction in test [7] is on record as above 95%; with Trichostrongylus axei [8] it was below 50%; in test [9], above 95%; with Haemonchus contortus [10], above 95%; with Cooperia [11], above 95%; in test [12] it was 51%. The same compound returned an IC100 with Artemia of 1730 ng/mL.
With `CCC(C)[C@H]1O[C@]2(C=C[C@@H]1C)C[C@@H]1C[C@@H](C/C=C(\C)[C@@H](O[C@H]3C[C@H](OC)[C@@H](O[C@H]4C[C@H](OC)[C@H](NC(C)=O)[C@H](C)O4)[C@H](C)O3)[C@@H](C)/C=C/C=C3\CO[C@@H]4[C@H](O)C(C)=C[C@@H](C(=O)O1)[C@]34O)O2` (some centres undefined), the Reduction (in [1]; in test [2]; in the test with Cooperia [3]; in the test on Haemonchus contortus [4]; in the test with Trichostrongylus axei [5]; in test [6]) was above 95% in each case. This compound displayed an IC100 with Artemia of 540 ng/mL.
As to `CCC(C)[C@H]1O[C@]2(C=C[C@@H]1C)C[C@@H]1C[C@@H](C/C=C(\C)[C@@H](O[C@H]3C[C@H](OC)[C@H](NC(C)=O)[C@H](C)O3)[C@@H](C)/C=C/C=C3\CO[C@@H]4[C@H](O)C(C)=C[C@@H](C(=O)O1)[C@]34O)O2` (some centres undefined), the Reduction in test [7] was 76%; in the test on Trichostrongylus axei [8], above 95%; in test [9], above 95%; with Haemonchus contortus [10], below 50%; in the test on Cooperia [11], below 50%; in test [12], above 95%. The compound further returned an IC100 in the test with Artemia of 1300 ng/mL.
`CCC(C)[C@H]1O[C@]2(C=C[C@@H]1C)C[C@@H]1C[C@@H](C/C=C(\C)[C@@H](O[C@H]3C[C@H](OC)[C@@H](O[C@H]4C[C@H](OC)[C@@H](O)[C@H](C)O4)[C@H](C)O3)[C@@H](C)/C=C/C=C3\CO[C@@H]4[C@H](O)C(C)=C[C@@H](C(=O)O1)[C@]34O)O2` (some centres undefined) [AVERMECTIN]: the Reduction (in [7]; in the test on Trichostrongylus axei [8]; in [9]; in the test with Haemonchus contortus [10]; in the test on Cooperia [11]; in [12]) was above 95% in each case. Also, in the test on Artemia, the IC100 was found to be 296 ng/mL.
`CCC(C)[C@H]1O[C@]2(C=C[C@@H]1C)C[C@@H]1C[C@@H](C/C=C(\C)[C@@H](O[C@H]3C[C@H](OC)[C@@H](O[C@H]4C[C@H](OC)[C@H](NC(=O)NC)[C@H](C)O4)[C@H](C)O3)[C@@H](C)/C=C/C=C3\CO[C@@H]4[C@H](O)C(C)=C[C@@H](C(=O)O1)[C@]34O)O2` (some centres undefined): the Reduction is listed as above 95% in test [7]; above 95% in the test with Trichostrongylus axei [8]; 51% in test [9]; above 95% in the test with Haemonchus contortus [10]; above 95% in the test with Cooperia [11]; 76% in test [12]. Besides, the IC100 in the test on Artemia worked out at 430 ng/mL.
In the case of `CCCCCCCCN[C@@H]1[C@H](C)O[C@@H](O[C@H]2[C@H](C)O[C@@H](O[C@@H]3/C(C)=C/C[C@@H]4C[C@@H](C[C@]5(C=C[C@H](C)[C@@H](C(C)CC)O5)O4)OC(=O)[C@@H]4C=C(C)[C@@H](O)[C@H]5OC/C(=C\C=C\[C@@H]3C)[C@]54O)C[C@@H]2OC)C[C@@H]1OC` (some centres undefined), the Reduction (in test [7]; in the test on Trichostrongylus axei [8]; in test [9]; in the test on Haemonchus contortus [10]; in the test on Cooperia [11]; in [12]) was below 50% throughout. This compound also gave an IC100 in the test on Artemia above 55500 ng/mL.
Consider `CCC(C)[C@H]1O[C@]2(CC[C@@H]1C)C[C@@H]1C[C@@H](C/C=C(\C)[C@@H](O[C@H]3C[C@H](OC)[C@@H](O[C@H]4C[C@H](OC)[C@H](NC(=O)COC)[C@H](C)O4)[C@H](C)O3)[C@@H](C)/C=C/C=C3\CO[C@@H]4[C@H](O)C(C)=C[C@@H](C(=O)O1)[C@]34O)O2` (some centres undefined), for which the Reduction is on record as above 95% in test [7]; above 95% in the test with Trichostrongylus axei [8]; above 95% in [9]; above 95% with Haemonchus contortus [10]; above 95% in the test on Cooperia [11]; 76% in [12]. Besides, the IC100 in the test with Artemia worked out at 870 ng/mL.
In the case of `CCC(C)[C@H]1O[C@]2(CC[C@@H]1C)C[C@@H]1C[C@@H](C/C=C(\C)[C@@H](O[C@H]3C[C@H](OC)[C@@H](O[C@H]4C[C@H](OC)[C@H](N)[C@H](C)O4)[C@H](C)O3)[C@@H](C)/C=C/C=C3\CO[C@@H]4[C@H](O)C(C)=C[C@@H](C(=O)O1)[C@]34O)O2` (some centres undefined), the Reduction is recorded as above 95% in test [7]; below 50% in the test on Trichostrongylus axei [8]; above 95% in [9]; above 95% in the test with Haemonchus contortus [10]; above 95% in the test on Cooperia [11]; below 50% in test [12]. Moreover, the IC100 in the test on Artemia was 1730 ng/mL.

Source of the values: ChEMBL document CHEMBL1128617, “4-Deoxy-4-aminoavermectins with potent broad spectrum antiparasitic activities” (1995).
